{"source": "patent US20220010019A1", "about": "“Targeting intraepithelial lymphocytes for treatment of metabolic syndrome” (The General Hospital Corporation, priority 2018, published 2022)", "system": "Ldlr−/− mice", "assay": "Atherosclerotic lesion quantification in HCD-fed Ldlr−/− mice, Glp1r agonist treatment", "type": "in vivo", "conditions": "8 weeks on HCD, 100 μg per kg per day via osmotic minipumps, vs PBS", "experimental": "Glp1r agonist treatment. Ldlr−/− mice were treated with the Glp1r agonist exendin-4 (Abcam) at a dose of 100 μg per kg per day via osmotic minipumps (Alzet). After 8 weeks on a HCD, mice were euthanized for atherosclerotic lesion quantification.\nAdipose tissue. iWAT and pWAT were excised, fixed in 10% formalin solution and paraffin-embedded. Haematoxylin and eosin staining was performed to assess overall tissue morphology. The adipocyte size distribution was determined with the NIH ImageJ program. Aortas. Aortic roots were dissected, embedded in Tissue-Tek OCT compound (Sakura Finetek) and frozen in 2-methylbutane (Fisher Scientific) cooled with dry ice. For comparisons of lesion sizes between the groups, sections with the maximum lesion area were used. To measure lesion volume, sections were collected at the first appearance of the aortic valves until lesions were no longer visible. Oil red O staining (Sigma-Aldrich) was performed to visualize lipid content and the lesion size was measured. To quantify lesion macrophage and smooth muscle cell content, immunohistochemistry was performed with anti-CD68 (BioLegend) and anti-Myh11 (Millipore) antibodies. […] To quantify collagen content, Masson trichrome staining (Sigma-Aldrich) was performed.", "data": [{"substance": "exendin-4", "values": [{"measurement": "atherosclerosis (plaque size, oil-red O-stained aortas)", "result": "attenuated atherosclerosis"}]}]}
